# Source: ChEMBL document CHEMBL3885881, “DrugMatrix”
# Species on record: Rattus norvegicus
# Assay: DrugMatrix - Regimen: Daily Repeat
# Format: toxicity, organism-based, Sprague-Dawley
# Set-up: regimen Daily Repeat, gender Male, age 6-8 weeks
# Conditions: in vivo, ip, route intraperitoneal, vehicle 100 % SALINE; for ALANINE AMINOTRANSFERASE / ALBUMIN / ALKALINE PHOSPHATASE / ASPARTATE AMINOTRANSFERASE / BLOOD UREA NITROGEN / CARBON DIOXIDE / CHLORIDE / CHOLESTEROL / CREATINE PHOSPHOKINASE / CREATININE / GLUCOSE / LACTATE DEHYDROGENASE / LIPASE / PHOSPHORUS / POTASSIUM / SODIUM / TOTAL BILIRUBIN / TOTAL PROTEIN / URIC ACID: tissue Plasma; for ABSOLUTE BASOPHIL / ABSOLUTE EOSINOPHIL / ABSOLUTE LYMPHOCYTE / ABSOLUTE MONOCYTE / ABSOLUTE SEGMENTED NEUTROPHIL / BASOPHIL / EOSINOPHIL / ERYTHROCYTE COUNT / HEMATOCRIT / HEMOGLOBIN / LEUKOCYTE COUNT / LYMPHOCYTE / MEAN CORPUSCULAR HEMOGLOBIN / MEAN CORPUSCULAR HEMOGLOBIN CONCENTRATION / MEAN CORPUSCULAR VOLUME / MONOCYTE / NEUTROPHIL / NUCLEATED RED BLOOD CELLS / PLATELET COUNT: tissue Blood
# [1] = 16 mg/kg, […], dose level Low, time 7 day
# [2] = 25 mg/kg, 72 h, dose level M1, time 3 day
# [3] = 25 mg/kg, […], dose level M1, time 7 day
# [4] = 32 mg/kg, 72 h, dose level High, time 3 day
# [5] = 32 mg/kg, 120 h, dose level High, time 5 day
smiles,measurement,setting,value
C=CCO [ALLYL ALCOHOL],ALANINE AMINOTRANSFERASE,[1],80.83 u/L
same,ALBUMIN,[1],4.13 G/DL
same,ALKALINE PHOSPHATASE,[1],183 u/L
same,ASPARTATE AMINOTRANSFERASE,[1],104.33 u/L
same,BLOOD UREA NITROGEN,[1],16.67 mg/dL
same,CARBON DIOXIDE,[1],32.17 mmol/L
same,CHLORIDE,[1],100.67 MEQ/L
same,CHOLESTEROL,[1],73.5 mg/dL
same,CREATINE PHOSPHOKINASE,[1],256 u/L
same,CREATININE,[1],0.27 mg/dL
same,GLUCOSE,[1],141 mg/dL
same,LACTATE DEHYDROGENASE,[1],96.17 u/L
same,LIPASE,[1],10.5 u/L
same,PHOSPHORUS,[1],10.28 mg/dL
same,POTASSIUM,[1],5.47 MEQ/L
same,SODIUM,[1],142.65 MEQ/L
same,TOTAL BILIRUBIN,[1],0.12 mg/dL
same,TOTAL PROTEIN,[1],6.32 G/DL
same,URIC ACID,[1],0.65 mg/dL
same,ABSOLUTE BASOPHIL,[2],0 CELLS/uL
same,ABSOLUTE EOSINOPHIL,[2],43.33 CELLS/uL
same,ABSOLUTE LYMPHOCYTE,[2],12346.17 CELLS/uL
same,ABSOLUTE MONOCYTE,[2],299.67 CELLS/uL
same,ABSOLUTE SEGMENTED NEUTROPHIL,[2],1244.17 CELLS/uL
same,BASOPHIL,[2],0%
same,EOSINOPHIL,[2],0.33%
same,ERYTHROCYTE COUNT,[2],5.36 x10E6/uL
same,HEMATOCRIT,[2],34.17%
same,HEMOGLOBIN,[2],13.52 G/DL
same,LEUKOCYTE COUNT,[2],13.93 x10E3/uL
same,LYMPHOCYTE,[2],88.17%
same,MEAN CORPUSCULAR HEMOGLOBIN,[2],25.25 pg
same,MEAN CORPUSCULAR HEMOGLOBIN CONCENTRATION,[2],39.62 G/DL
same,MEAN CORPUSCULAR VOLUME,[2],63.8 fL
same,MONOCYTE,[2],2.17%
same,NEUTROPHIL,[2],9.33%
same,NUCLEATED RED BLOOD CELLS,[2],0 /100WBC
same,PLATELET COUNT,[2],1124.67 x10E3/uL
same,ALANINE AMINOTRANSFERASE,[2],46.67 u/L
same,ALBUMIN,[2],4 G/DL
same,ALKALINE PHOSPHATASE,[2],230.83 u/L
same,ASPARTATE AMINOTRANSFERASE,[2],67.33 u/L
same,BLOOD UREA NITROGEN,[2],11.17 mg/dL
same,CARBON DIOXIDE,[2],32.67 mmol/L
same,CHLORIDE,[2],102 MEQ/L
same,CHOLESTEROL,[2],77.17 mg/dL
same,CREATINE PHOSPHOKINASE,[2],229.5 u/L
same,CREATININE,[2],0.39 mg/dL
same,GLUCOSE,[2],137 mg/dL
same,LACTATE DEHYDROGENASE,[2],101.67 u/L
same,LIPASE,[2],8.33 u/L
same,PHOSPHORUS,[2],9.72 mg/dL
same,POTASSIUM,[2],5.84 MEQ/L
same,SODIUM,[2],141.88 MEQ/L
same,TOTAL BILIRUBIN,[2],0.17 mg/dL
same,TOTAL PROTEIN,[2],6.07 G/DL
same,URIC ACID,[2],1.12 mg/dL
same,ABSOLUTE BASOPHIL,[3],0 CELLS/uL
same,ABSOLUTE EOSINOPHIL,[3],65.67 CELLS/uL
same,ABSOLUTE LYMPHOCYTE,[3],7275.5 CELLS/uL
same,ABSOLUTE MONOCYTE,[3],150.67 CELLS/uL
same,ABSOLUTE SEGMENTED NEUTROPHIL,[3],874.83 CELLS/uL
same,BASOPHIL,[3],0%
same,EOSINOPHIL,[3],0.67%
same,ERYTHROCYTE COUNT,[3],5.49 x10E6/uL
same,HEMATOCRIT,[3],34.07%
same,HEMOGLOBIN,[3],13.33 G/DL
same,LEUKOCYTE COUNT,[3],8.37 x10E3/uL
same,LYMPHOCYTE,[3],87.67%
same,MEAN CORPUSCULAR HEMOGLOBIN,[3],24.3 pg
same,MEAN CORPUSCULAR HEMOGLOBIN CONCENTRATION,[3],39.13 G/DL
same,MEAN CORPUSCULAR VOLUME,[3],62.12 fL
same,MONOCYTE,[3],1.83%
same,NEUTROPHIL,[3],9.83%
same,NUCLEATED RED BLOOD CELLS,[3],0 /100WBC
same,PLATELET COUNT,[3],1389.83 x10E3/uL
same,ALANINE AMINOTRANSFERASE,[3],80.83 u/L
same,ALBUMIN,[3],4.2 G/DL
same,ALKALINE PHOSPHATASE,[3],232.83 u/L
same,ASPARTATE AMINOTRANSFERASE,[3],88.17 u/L
same,BLOOD UREA NITROGEN,[3],15 mg/dL
same,CARBON DIOXIDE,[3],31.33 mmol/L
same,CHLORIDE,[3],101 MEQ/L
same,CHOLESTEROL,[3],66.5 mg/dL
same,CREATINE PHOSPHOKINASE,[3],274.5 u/L
same,CREATININE,[3],0.28 mg/dL
same,GLUCOSE,[3],136.67 mg/dL
same,LACTATE DEHYDROGENASE,[3],97 u/L
same,LIPASE,[3],10.5 u/L
same,PHOSPHORUS,[3],9.85 mg/dL
same,POTASSIUM,[3],5.63 MEQ/L
same,SODIUM,[3],144.45 MEQ/L
same,TOTAL BILIRUBIN,[3],0.1 mg/dL
same,TOTAL PROTEIN,[3],6.35 G/DL
same,URIC ACID,[3],0.85 mg/dL
same,ABSOLUTE BASOPHIL,[4],0 CELLS/uL
same,ABSOLUTE EOSINOPHIL,[4],16 CELLS/uL
same,ABSOLUTE LYMPHOCYTE,[4],7549.2 CELLS/uL
same,ABSOLUTE MONOCYTE,[4],147.6 CELLS/uL
same,ABSOLUTE SEGMENTED NEUTROPHIL,[4],1267.2 CELLS/uL
same,BASOPHIL,[4],0%
same,EOSINOPHIL,[4],0.2%
same,ERYTHROCYTE COUNT,[4],5.74 x10E6/uL
same,HEMATOCRIT,[4],34.96%
same,HEMOGLOBIN,[4],13.16 G/DL
same,LEUKOCYTE COUNT,[4],8.98 x10E3/uL
same,LYMPHOCYTE,[4],84%
same,MEAN CORPUSCULAR HEMOGLOBIN,[4],22.98 pg
same,MEAN CORPUSCULAR HEMOGLOBIN CONCENTRATION,[4],37.66 G/DL
same,MEAN CORPUSCULAR VOLUME,[4],61.06 fL
same,MONOCYTE,[4],1.6%
same,NEUTROPHIL,[4],14.2%
same,NUCLEATED RED BLOOD CELLS,[4],0 /100WBC
same,PLATELET COUNT,[4],945 x10E3/uL
same,ALANINE AMINOTRANSFERASE,[4],456.4 u/L
same,ALBUMIN,[4],3.86 G/DL
same,ALKALINE PHOSPHATASE,[4],444.6 u/L
same,ASPARTATE AMINOTRANSFERASE,[4],939.2 u/L
same,BLOOD UREA NITROGEN,[4],15.6 mg/dL
same,CARBON DIOXIDE,[4],28.24 mmol/L
same,CHLORIDE,[4],98.33 MEQ/L
same,CHOLESTEROL,[4],70.6 mg/dL
same,CREATINE PHOSPHOKINASE,[4],527.8 u/L
same,CREATININE,[4],0.2 mg/dL
same,GLUCOSE,[4],138.2 mg/dL
same,LACTATE DEHYDROGENASE,[4],186.6 u/L
same,LIPASE,[4],9.25 u/L
same,PHOSPHORUS,[4],9.34 mg/dL
same,POTASSIUM,[4],5.07 MEQ/L
same,SODIUM,[4],143.03 MEQ/L
same,TOTAL BILIRUBIN,[4],0.2 mg/dL
same,TOTAL PROTEIN,[4],5.94 G/DL
same,URIC ACID,[4],0.58 mg/dL
same,ABSOLUTE BASOPHIL,[5],0 CELLS/uL
same,ABSOLUTE EOSINOPHIL,[5],0 CELLS/uL
same,ABSOLUTE LYMPHOCYTE,[5],8954.4 CELLS/uL
same,ABSOLUTE MONOCYTE,[5],236 CELLS/uL
same,ABSOLUTE SEGMENTED NEUTROPHIL,[5],1769.6 CELLS/uL
same,BASOPHIL,[5],0%
same,EOSINOPHIL,[5],0%
same,ERYTHROCYTE COUNT,[5],5.51 x10E6/uL
same,HEMATOCRIT,[5],33.82%
same,HEMOGLOBIN,[5],12.86 G/DL
same,LEUKOCYTE COUNT,[5],10.96 x10E3/uL
same,LYMPHOCYTE,[5],81.4%
same,MEAN CORPUSCULAR HEMOGLOBIN,[5],23.36 pg
same,MEAN CORPUSCULAR HEMOGLOBIN CONCENTRATION,[5],38.08 G/DL
same,MEAN CORPUSCULAR VOLUME,[5],61.42 fL
same,MONOCYTE,[5],2.2%
same,NEUTROPHIL,[5],16.4%
same,NUCLEATED RED BLOOD CELLS,[5],0 /100WBC
same,PLATELET COUNT,[5],1673 x10E3/uL
same,ALANINE AMINOTRANSFERASE,[5],57.8 u/L
same,ALBUMIN,[5],4.32 G/DL
same,ALKALINE PHOSPHATASE,[5],372.6 u/L
same,ASPARTATE AMINOTRANSFERASE,[5],80.8 u/L
same,BLOOD UREA NITROGEN,[5],12.6 mg/dL
same,CARBON DIOXIDE,[5],32.4 mmol/L
same,CHLORIDE,[5],102 MEQ/L
same,CHOLESTEROL,[5],79.8 mg/dL
same,CREATINE PHOSPHOKINASE,[5],211.6 u/L
same,CREATININE,[5],0.16 mg/dL
same,GLUCOSE,[5],162.6 mg/dL
same,LACTATE DEHYDROGENASE,[5],154.6 u/L
same,LIPASE,[5],9.6 u/L
same,PHOSPHORUS,[5],9.92 mg/dL
same,POTASSIUM,[5],5.73 MEQ/L
same,SODIUM,[5],143.6 MEQ/L
same,TOTAL BILIRUBIN,[5],0.22 mg/dL
same,TOTAL PROTEIN,[5],6.56 G/DL
same,URIC ACID,[5],0.94 mg/dL
